Consider three molecules from patent US9526721B2, “Tetrahydroprotoberbine compounds and uses thereof in the treatment of neurological, psychiatric and neurodegenerative diseases” (priority 2012, dated 2016).

The target of series [1] is T1, D2L (Homo sapiens, UniProt P14416).
T1 construct: host or cells: CHO cells
The series can be described thus: Receptor binding, dopamine D2L. The conditions noted are these: present data; comparison ligand 0.16 nM Spiperone; read-out: D2L (Ki). The method, then: (§1) All receptors tested were heterologously expressed CHO cells and IC50 values were determined by a non-linear, least squares regression analysis using MathIQ (ID Business Solution Ltd, UK). Ki was calculated using the equation of Cheng and Prusoff (1973, Biochem. Pharmacol 22:23099-3108) derived from the observed IC50 of the tested compound, the concentration of radioligand employed in the assay, and the historical values for the Kd of the ligand (obtained experimentally at MDS Pharma Services).
(§2) All receptors were heterologously expressed CHO cells and IC50 values were determined by a non-linear, least squares regression analysis using MathIQ (ID Business Solution Ltd, UK). K1 was calculated (Y. Cheng & Prusoff 1973) from the observed IC50 of the tested compound, the concentration of radioligand employed in the assay, and the historical values for the Kd of the ligand (obtained experimentally at MDS Pharma Services).

In series [2] the test system is D1/D2. As to the kind of experiment: D1/D2 affinity ratio. It is filed as binding. The conditions noted are these: present data. The procedure:
as §2

Another series in a line: Catalepsy (bar test). In kind it is in vivo, rat. Conditions: rat, in vivo; present data; SC, 45 min time point. The procedure:
(§3) Testing occurred in a plexiglas box (28 cm×45 cm×20 cm) containing a horizontal steel bar located 8 cm above floor level. […] After injection animals were returned to the test box and catalepsy testing occurred at 1, 15, 30, and 45 minutes after injection. Testing at each time point lasted 2 min after the forepaws of each rat was placed on the bar. Behavior was recorded with a video camera (Cohu, Poway, Calif.) and scored off-line. The cumulative time spent immobilized with both forelimbs on the horizontal bar was scored for each 2 min test epoch. Videos selected at random were scored independently by a second observer and a high inter-rater reliability was observed (R^2=0.93, F=393.4, p<0.05).
(§4) Catalepsy testing was conducted as described in Example 12.

Series [3] deals with rats. As to the kind of experiment: Catalepsy (bar test). In kind it is in vivo, rat. The method, then: as §3, §4
The subject of series [4] is rats. As to the kind of experiment: Latent inhibition. It is filed as in vivo, rat. The procedure:
Sensitization: Animals were removed from the colony and taken to a holding room where they received either IP d-AMPH or saline every Monday, Wednesday, and Friday. Doses started at 1 mg/kg and increased 1 mg/kg each week over 5 weeks to 5 mg/kg. 25 days after the induction phase, behavioral sensitization was assessed over 3 days in locomotor chambers (plexiglass box, 40 cm×40 cm×40 cm) where speed and distance traveled were recorded using Noldus Ethovision XT (Noldus, Leesburg, Va.). The first day consisted of a 2 hr acclimation session, and prior to counter balanced injections of either 0.5 mg/kg d-AMPH or saline on days 2 and 3 animals were acclimated for 1 hr. Experiments were run in two separate cohorts of 30 animals to minimize the time between testing sensitization and LI.
Latent Inhibition: LI tests were performed in rats treated with 1.0 mg/kg acute d-AMPH, sensitized rats, and drug-naive rats. LI testing began 5 days post-challenge of the escalating dose regime. Animals in both conditions (chronic saline or sensitized) were randomly assigned to either non-pre-exposed (NPE) or pre-exposed (PE) groups. Testing took place over 3 consecutive days. […] Animals in the PE group received 50 presentations of the CS (10 sec duration) per day at a variable interval for the first two days. Animals in the NPE group were placed in the chamber for an equal time as the PE animals. Conditioning (COND) consisted of 100 CS-US pairings. Latency to cross into the other compartment and the number of total beam breaks were recorded. Drug-naïve animals receiving acute 1.0 mg/kg AMPH were injected IP 45 min before the COND trial.
The effects of the two individual enantiomers of govadine on latent inhibition (LI) were also tested as described in Example 12.

The target of series [5] is T2, D1 (Homo sapiens, UniProt P21728). As to the kind of experiment: Receptor binding, dopamine D1. The conditions noted are these: present data; comparison ligand 0.14 nM SCH-23390; read-out: D1 (Ki). Details: host or cells: CHO cells. The method, then:
as §1, §2

In series [6] the test system is rats. As to the kind of experiment: Amphetamine-induced locomotion (AIL). Conditions: Rattus norvegicus, ip, 1 h, read-out: AIL (ED50).
Protocol: Animals were habituated to the locomotor arena for 1 hr on 4 consecutive days prior to testing. Locomotor activity was assessed on day 1 of habituation and treatment groups were assigned in a counter balanced fashion depending on locomotor activity on this day.
After d-AMPH/SAL injection, distance travelled was assessed for 1 hr. Distance travelled was recorded with Noldus Ethovision XT (Noldus, Leesburg, Va.) and analyzed off-line.
Amphetamine induced locomotion (AIL): Animals were habituated to locomotor arenas for 1 hr on 4 consecutive days prior to testing. Locomotor activity was assessed on day 1 of habituation and treatment groups were assigned in a counter-balanced manner determined by distance traveled on day 1. […] Distance traveled was recorded with Noldus Ethovision XT (Noldus, Leesburg, Va.) and analyzed off-line.
The test system of series [7] is rats. The series can be described thus: Conditioned avoidance responding (CAR).
Protocol: Conditioned avoidance responding (CAR) was performed in a two-way avoidance procedure with drug naive rats in four shuttle boxes (Med Associates, Vt., USA) each consisting of two compartments separated by an open door. Each compartment contained a wall-mounted speaker, house light and 5 photocells to detect the location of the animal. All experimental protocols and data acquisition were controlled by custom programs written in MED-PC.
Before training, each animal received two acclimation sessions lasting 30 min with only the house light illuminated. […] Pairings of the conditioned stimulus (CS) (white noise, ˜60 dB) and the unconditioned stimulus (US) (footshock, 0.75 mA) were presented at random intervals with a mean of 60 sec. The CS was presented for 10 sec. During this time, if the animal moved to the opposite side of the box, the white noise was silenced, no foot shock delivered, and an avoidance response was scored. Upon termination of the 10 sec tone, if the animal had not moved to the opposite side of the box, a foot-shock was administered for 2 sec. […] Failure to avoid or escape constituted a response failure and was scored accordingly. After reaching a criterion of 90% avoidances for a block of 20 trials, usually achieved with ˜100 CS-US pairings, each animal advanced to the drug-testing phase. Animals not meeting the criterion by 120 pairings were excluded from the study.
Pairings were presented just as during training and were scored in the same fashion. The test trial consisted of 100 CS-US pairings.
The subject of series [8] is rats. As to the kind of experiment: Microdialysis of prefrontal cortex and nucleus accumbens.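 Note: dialysate collected every 10 min from freely moving rats, analysed by HPLC with electrochemical detection, after four stable baseline samples (under 10% variation) preceding drug dosing.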
Protocol: Rats received subcutaneous injections of an analgesic (ketoprofen 0.05 mL or buprenorphine, 0.1 mL) and sterile saline (0.9% NaCl, ˜3 mL). Once shaved and cleaned, the heads were secured in the stereotaxic frame in flat skull position for bilateral implantation of stainless steel microdialysis guide cannulae (19 gauge×15 mm) in the nucleus accumbens (NAc) (from bregma +1.7 mm anterior and ±1.1 mm medial; from dura −1.0 mm ventral) or medial prefrontal cortex (mPFC) (+3.0 mm anterior, ±0.6 mm medial; −1.0 mm ventral). […] Rats were allowed to rest with heat support until they regained consciousness, and then given a one-week recovery period.
Microdialysis probes were assembled 1-2 days prior to microdialysis experiments. Probes were concentric in design, constructed from Filtral 12 AN69HF semi-permeable hollow fibres (2 mm length, 340 μm OD×4 mm, 65 kDalton molecular weight cut-off; Hospal, Neurnberg, Germany) and silica inlet-outlet lines (75/150 um ID/OD).
The day prior to microdialysis experiments, probes were connected to an Instech dual-channel liquid swivel (Plymouth Meeting, Pa.) and flushed with artificial cerebrospinal fluid (aCSF). […] Following DA recovery tests, probes were implanted via the guide cannulae (dialysis membrane spanned −4.8 to −6.8 mm ventrally for NAc; −1.6 to −3.6 mm for mPFC). Rats remained in the testing chamber overnight (14-16 hr) with aCSF perfusing continuously through the probes at 1 μL/min In the morning, microdialysis samples were collected at 10 min intervals and assayed for DA, DOPAC, homovanillic acid (HVA) and 5-HIAA content. Once baseline levels were determined to be stable for four consecutive samples (less than 10% fluctuation), the drug treatment phase of each experiment was initiated.
Microdialysis samples were analyzed immediately after collection using high pressure liquid chromatography (HPLC) with electrochemical detection. […] The mobile phase [70 mM sodium acetate buffer, 40 mg/L EDTA and 50 mg/L of sodium dodecyl sulfate (adjustable), pH 4.0, 10% methanol] flowed through the system at 0.17 mL/min EZChrome Elite software (Scientific Software, Pleasanton, Calif.) was used to acquire and analyze chromatographic data.
After the experiments, rats were deeply anesthetized, brains were removed and stored in 20% w/v sucrose and 4% v/v paraformaldehyde. Brains were sliced into 50 um coronal sections, stained with cresyl violet and examined for probe placement.
Microdialysis probes (2 mm active membrane) were implanted in the NAc and mPFC ˜16 hrs prior to start of the experiment and continuously perfused aCSF.
For series [9], the system named is rats. As to the kind of experiment: Temporal order recognition (radial arm maze). Conditions: 1.0 mg/kg govadine isomers, 5.0 mg/kg clozapine.
Protocol: The task exploits a rat's natural preference for novel locations. Each animal received 3 separate trials where access to two arms of an eight arm radial arm maze was granted. During the first trial, two arms were selected at random for exploration, and animals were allowed to explore these arms for 2 min After this time, they were taken off the maze and returned to their home cage. 1 hour later they were placed back on the maze and two new arms were randomly selected for 2 min of exploration.
Time spent in each arm (recent and old) was recorded as well as total distance traveled and the total number of arm entries in Noldus EthoVision 3.1 (Leesburg, Va.).
For series [10], the target named is T1, D2L. Conditions: Xu, S. X. et al., 1989; comparison ligand 0.16 nM Spiperone; cited from earlier work.
Series [11] has as its system D1/D2. Conditions: cited from earlier work.
Series [12] has as its system rats. Conditions: Natesan et al., 2008; cited from earlier work.
The test system of series [13] is rats. The conditions noted are these: Natesan et al., 2008; listed as 1-SPD; cited from earlier work.
Series [14] deals with rats. Conditions: Natesan et al., 2008; cited from earlier work. This is another data set of the same source.
Series [15] has as its target T2, D1. The conditions noted are these: read-out: D1 (Ki); Xu, S. X. et al., 1989; comparison ligand 0.14 nM SCH-23390; cited from earlier work.
Setting [16] is: microdialysis, nucleus accumbens.
Where [17] appears, read: microdialysis, prefrontal cortex.

Where two headings read alike, the source gives them in different places. Marks after values point to notes of the source that are not given here.

T2 sequence (P21728 whole entry): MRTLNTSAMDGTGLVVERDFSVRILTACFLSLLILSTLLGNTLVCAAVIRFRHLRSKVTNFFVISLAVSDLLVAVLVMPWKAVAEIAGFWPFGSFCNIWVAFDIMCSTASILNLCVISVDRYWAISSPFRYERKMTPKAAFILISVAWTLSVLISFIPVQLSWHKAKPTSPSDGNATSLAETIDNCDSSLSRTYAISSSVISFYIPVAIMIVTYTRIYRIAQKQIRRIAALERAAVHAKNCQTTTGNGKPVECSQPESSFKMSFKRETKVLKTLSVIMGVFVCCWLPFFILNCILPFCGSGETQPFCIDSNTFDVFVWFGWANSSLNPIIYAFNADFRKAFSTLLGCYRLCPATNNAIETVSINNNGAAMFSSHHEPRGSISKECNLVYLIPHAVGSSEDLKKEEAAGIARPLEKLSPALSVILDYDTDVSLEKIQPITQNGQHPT
T1 sequence (P14416 whole entry): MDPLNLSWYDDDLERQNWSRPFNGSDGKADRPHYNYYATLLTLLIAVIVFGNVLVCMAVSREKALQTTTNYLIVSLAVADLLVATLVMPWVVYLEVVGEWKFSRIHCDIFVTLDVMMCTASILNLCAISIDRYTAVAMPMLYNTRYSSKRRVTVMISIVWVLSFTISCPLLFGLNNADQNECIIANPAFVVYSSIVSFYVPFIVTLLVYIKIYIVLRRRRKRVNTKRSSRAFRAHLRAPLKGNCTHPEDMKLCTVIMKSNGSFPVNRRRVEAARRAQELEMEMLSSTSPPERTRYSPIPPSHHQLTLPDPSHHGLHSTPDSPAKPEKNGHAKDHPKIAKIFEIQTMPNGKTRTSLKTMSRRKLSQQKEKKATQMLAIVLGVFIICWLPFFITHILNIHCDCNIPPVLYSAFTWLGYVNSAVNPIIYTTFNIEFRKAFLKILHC

Usually Ki stands for a dissociation constant, usually derived from enzyme kinetics or from competition with a known ligand. Broadly, the ED50 is the dose at which the effect has come halfway, by size or by number of responders. Regarding `COc1cc2c(cc1O)CN1CCc3cc(OC)c(O)cc3C1C2` (racemic) [dl-govadine], the Ki at D2L [1] came to 283 nM. For the same molecule, in the series on D1/D2 [2], the D1/D2 was 0.023#. For the same molecule, in “Catalepsy (bar test)”, the ED50 at 45 min was 4.7 mg/kg. Further, in the series with rats [3] (1.0 mg/kg SC), the catalepsy observed entry was “mild motor suppression”. In addition, in the series with rats [3] (6.0 mg/kg SC), the catalepsy observed result is “Strong and extended catalepsy”. For the same molecule, in the series on rats [3] (SC, across doses tested), the “catalepsy (immobilized contact time)” value is “dose-dependent increase”. Also, the “latent inhibition in non-sensitized animals” value with rats [4] (1.0 mg/kg SC before each pre-exposure session) was “no subsequent effect on LI”. Also, the “latent inhibition in d-AMPH sensitized animals” value with rats [4] (1.0 mg/kg SC before each pre-exposure, 5-week escalating d-AMPH) is “restored LI to levels observed in controls”. Also, in the series on rats [4] (treatment before each pre-exposure, 1.0 mg/kg d-AMPH before conditioning), the “latent inhibition in acute d-AMPH-treated animals” value is given as “restored LI”. Further, the Ki on D1 [5] came to 6.7 nM. Also, in the series on rats [6], the ED50 at […] came to 1.7 mg/kg. Further, in the series on rats [7] (Rattus norvegicus, sc, 20 min, read-out: CAR (ED50), present data, SC, 20 min post-injection), the ED50 is 0.723 mg/kg. In the series on rats [7] (SC, 100 CS-US pairings), the “escapes in CAR” value is listed as “increase in escapes” and the “suppression of conditioned avoidance responding (avoidances)” value is recorded as “dose-dependently suppressed avoidances”. The “CAR (ED50)” value in the series with rats [7] (present data, SC, 20 min post-injection) is listed as 0.720# mg/kg. The “effect of repeated treatment in CAR” value in the series on rats [7] (repeated treatment, FIG. 14) is given as “Neither of these effects was observed”. The “DA efflux in NAc and mPFC compared to control” value with rats [8] (1 mg/kg, Example 15) is “enhanced DA efflux”. Besides, in the series on rats [8] (setting [16]), the “5-HIAA in NAc” value is given as “No increase”, the “DOPAC in NAc” value is on record as “Increases”, the “HVA in NAc” value was “Increases” and the “dopamine level in NAc” value is listed as “increased”. Also, in the series with rats [8] (setting [17]), the “5-HIAA in PFC” value is recorded as “No increase”, the “DOPAC in PFC” value was “Increases”, the “HVA in PFC” value is given as “Increases” and the “dopamine level in PFC” value was “increased”.

Regarding `CN1CCN(C2=Nc3cc(Cl)ccc3Nc3ccccc32)CC1` [Clozapine, reference compound], in the series with rats [9] (45 min. delay), the “Arm Entries” value is on record as 7.0 ± 1.9 and the “Distance Travelled” value was found to be 1286 ± 177. In the series on rats [9] (4 hr. delay), the “Arm Entries” value stood at 6.0 ± 1.6 and the “Distance Travelled” value was 1098 ± 74.

In the case of `COc1cc2c(cc1O)[C@@H]1Cc3ccc(O)c(OC)c3CN1CC2` [l-Stepholidine, l-stepholidine], the Ki at D2L [10] was 85 nM; at D1 [15] it was 13 nM. Also, the D1/D2 is 0.850* with D1/D2 [11] (Natesan et al., 2008) and 0.150** in the series on D1/D2 [11] (Xu, S. X. et al., 1989). The “AIL (ED50)” value with rats [12] is listed as 2.36* mg/kg. In addition, in the series on rats [13], the “CAR (ED50)” value is given as 0.27 mg/kg. Moreover, the “Catalepsy (ED50)” value in the series on rats [14] is 3.6 mg/kg.
